Reference: the NIST ThermoML archive (doi:10.1016/j.jct.2012.06.033)
Numbers after ± are expanded uncertainties.

Assays:
[1] = Liquid, Ebulliometric method (Recirculating still)
[2] = refractive index (Na D-line) (dimensionless); settings: 298.15 K; 101.33 kPa; Liquid; Standard Abbe refractometry

| SMILES | vapor or sublimation pressure ([1]; 343.15 K) [kPa] | vapor or sublimation pressure ([1]; 353.15 K) [kPa] | vapor or sublimation pressure ([1]; 363.15 K) [kPa] | refractive index [2] |
| --- | --- | --- | --- | --- |
| C[N+](=O)[O-] [nitromethane] | 34.93 ± 0.2 | 50.14 ± 0.25 | 70.81 ± 0.33 | 1.3793 ± 0.0007 |
| ClCCCCCl [1,4-dichlorobutane] | 5.25 ± 0.03 | 8.2 ± 0.04 | 12.52 ± 0.05 | 1.4522 ± 0.0004 |
| CC[N+](=O)[O-] [nitroethane] | 22.46 ± 0.13 | 32.84 ± 0.17 | 47.13 ± 0.22 | 1.3895 ± 0.0007 |
